Key:
[1] = tested on: CCRF-CEM; test: Cytostatic activity against human CEM cells after 72 hrs by Coulter counting analysis; assay type: functional, cell-based
[2] = tested on: L1210; test: Cytostatic activity against mouse L1210 cells after 48 hrs by Coulter counting analysis; assay type: functional, cell-based; details: L1210, 48 h
[3] = tested on: HeLa; test: Cytostatic activity against human HeLa cells after 72 hrs by Coulter counting analysis; assay type: functional, cell-based
[4] = tested on: Human betaherpesvirus 5; test: Antiviral activity against Human cytomegalovirus AD169 assessed as reduction in viral plaque formation; assay type: functional, organism-based; details: Human betaherpesvirus 5, AD169
[5] = Cytotoxicity against HEL cells assessed as growth inhibition; assay type: cell-based; details: human
[6] = tested on: Human betaherpesvirus 5; test: Antiviral activity against Human cytomegalovirus Davis assessed as reduction in viral plaque formation; assay type: functional, organism-based; details: Human betaherpesvirus 5, Davis
[7] = Cytotoxicity against HEL cells assessed as alteration in cellular morphology; assay type: cell-based; details: human
[8] = tested on: Human alphaherpesvirus 3; test: Antiviral activity against thymidine kinase-deficient Varicella zoster virus 07-1 assessed as reduction in virus-induced cytopathogenicity by cell-based assay; assay type: functional, organism-based; details: Human alphaherpesvirus 3, 07-1
[9] = tested on: Human alphaherpesvirus 1; test: Antiviral activity against Herpes simplex virus type 1 KOS assessed as reduction in virus-induced cytopathogenicity by cell-based assay; assay type: functional, organism-based; details: Human alphaherpesvirus 1, KOS
[10] = tested on: Human alphaherpesvirus 1; test: Antiviral activity against thymidine kinase-deficient ACV-resistant Herpes simplex virus type 1 KOS assessed as reduction in virus-induced cytopathogenicity by cell-based assay; assay type: functional, organism-based; details: Human alphaherpesvirus 1, KOS
[11] = tested on: Human alphaherpesvirus 2; test: Antiviral activity against Herpes simplex virus type 2 G assessed as reduction in virus-induced cytopathogenicity by cell-based assay; assay type: functional, organism-based; details: Human alphaherpesvirus 2, strain G
[12] = tested on: Human alphaherpesvirus 3; test: Antiviral activity against Varicella zoster virus Oka assessed as reduction in virus-induced cytopathogenicity by cell-based assay; assay type: functional, organism-based; details: Human alphaherpesvirus 3, strain Oka vaccine

SMILES	IC50 [1]	IC50 [2]	IC50 [3]	EC50 [4]	EC50 [6]	CC50 [5]	MCC [7]	EC50 [8]	EC50 [9]	EC50 [10]	EC50 [11]	EC50 [12]
C=C(C)[C@@H]1CC[C@]2(C(=O)O)CC[C@]3(C)[C@H](CC[C@@H]4[C@@]5(C)Cc6cc7c(nc6C(C)(C)[C@@H]5CC[C@]43C)SCC7)[C@@H]12	3.8 µM	7.8 µM	10 µM	8.6 µM	11 µM	74 µM						
C=C(C)[C@@H]1CC[C@]2(C(=O)O)CC[C@]3(C)[C@H](CC[C@@H]4[C@@]5(C)CC(=O)C(=O)C(C)(C)[C@@H]5CC[C@]43C)[C@@H]12	13 µM	12 µM	19 µM	3 µM	2.9 µM	51 µM	20 µM	10 µM	10 µM	10 µM	10 µM	10 µM
C=C(C)[C@@H]1CC[C@]2(C(=O)O)CC[C@]3(C)[C@H](CC[C@@H]4[C@@]5(C)Cc6n[nH]c(=S)nc6C(C)(C)[C@@H]5CC[C@]43C)[C@@H]12	204 µM	196 µM	160 µM	≥ 20 µM	≥ 20 µM	> 100 µM	> 100 µM					

Stronger by IC50 [1], values ahead:

IC50 [1]	IC50 [2]	IC50 [3]	EC50 [4]	EC50 [6]	SMILES	CC50 [5]	MCC [7]	EC50 [8]	EC50 [9]	EC50 [10]	EC50 [11]	EC50 [12]
2.6 µM	7.3 µM	7.3 µM	1.8 µM	2 µM	C=C(C)[C@@H]1CC[C@]2(C(=O)O)CC[C@]3(C)[C@H](CC[C@@H]4[C@@]5(C)Cc6nnc(SC)nc6C(C)(C)[C@@H]5CC[C@]43C)[C@@H]12	45 µM	20 µM					
1.2 µM	4.9 µM	9.1 µM	> 4 µM	≥ 4 µM	C#CCCSc1nnc2c(n1)C(C)(C)[C@@H]1CC[C@]3(C)[C@H](CC[C@@H]4[C@H]5[C@H](C(=C)C)CC[C@]5(C(=O)O)CC[C@]43C)[C@@]1(C)C2	55 µM	20 µM					

— ChEMBL document CHEMBL3286370, “Synthesis of triterpenoid triazine derivatives from allobetulone and betulonic acid with biological activities” (Bioorg Med Chem, 2014)
